≈ marks a conversion by molar mass, not a printed value. Calls of active or inactive are those of the source. The rule behind the calls is not given here.
Assays:
[1] = biological target: T1, Peroxisome proliferator-activated receptor delta (Homo sapiens) (UniProt Q03181); experiment: Activation of human PPAR-delta LBD expressed in HEK293T cells assessed as induction of receptor activation at 10 uM incubated for 12 to 14 hrs by luciferase reporter gene assay; type: cell-based; details: HEK-293T
T1 sequence (whole entry): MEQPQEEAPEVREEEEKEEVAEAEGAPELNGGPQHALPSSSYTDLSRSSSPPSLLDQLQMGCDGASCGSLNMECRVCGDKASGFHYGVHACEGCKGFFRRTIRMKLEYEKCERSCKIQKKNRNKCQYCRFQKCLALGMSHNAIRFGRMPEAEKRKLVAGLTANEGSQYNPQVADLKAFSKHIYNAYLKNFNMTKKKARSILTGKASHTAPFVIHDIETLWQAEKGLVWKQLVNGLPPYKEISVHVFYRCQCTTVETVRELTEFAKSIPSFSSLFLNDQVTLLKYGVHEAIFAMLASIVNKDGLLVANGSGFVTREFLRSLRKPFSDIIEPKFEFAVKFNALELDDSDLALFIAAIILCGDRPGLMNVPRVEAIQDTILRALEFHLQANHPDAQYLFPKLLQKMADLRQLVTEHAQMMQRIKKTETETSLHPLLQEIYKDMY

[2] = biological target: T2, Bile acid receptor (Homo sapiens) (UniProt Q96RI1); experiment: Activation of human FXR LBD expressed in HEK293T cells assessed as induction of receptor activation at 1 uM incubated for 12 to 14 hrs by luciferase reporter gene assay relative to GW4064; type: cell-based; details: HEK-293T
T2 sequence (whole entry): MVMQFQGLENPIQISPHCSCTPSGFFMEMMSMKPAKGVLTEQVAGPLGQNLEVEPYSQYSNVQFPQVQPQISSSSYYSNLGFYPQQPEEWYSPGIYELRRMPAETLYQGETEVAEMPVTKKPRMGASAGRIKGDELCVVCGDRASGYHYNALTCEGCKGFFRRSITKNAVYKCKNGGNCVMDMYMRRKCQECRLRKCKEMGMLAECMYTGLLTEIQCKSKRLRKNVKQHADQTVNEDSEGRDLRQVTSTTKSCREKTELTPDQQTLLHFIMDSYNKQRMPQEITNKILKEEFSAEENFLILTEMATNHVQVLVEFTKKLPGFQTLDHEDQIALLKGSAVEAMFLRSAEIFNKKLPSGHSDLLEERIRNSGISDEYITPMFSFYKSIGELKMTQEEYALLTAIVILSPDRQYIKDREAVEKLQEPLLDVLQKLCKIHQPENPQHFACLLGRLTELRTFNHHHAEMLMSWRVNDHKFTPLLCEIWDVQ

[3] = Aqueous solubility in pH 8 buffer by HPLC analysis; type: physicochemical
[4] = biological target: T2, Bile acid receptor (Homo sapiens); experiment: Activation of human FXR LBD expressed in HEK293T cells assessed as induction of receptor activation at 1 to 3 uM incubated for 12 to 14 hrs by luciferase reporter gene assay; type: cell-based; details: HEK-293T
[5] = biological target: T3, Bile acid receptor (Homo sapiens, UniProt Q96RI1); experiment: Activation of human FXR LBD expressed in HEK293T cells assessed as induction of receptor activation incubated for 12 to 14 hrs by luciferase reporter gene assay; type: cell-based, HEK-293T
T3 sequence (Q96RI1 whole entry): T2 sequence (whole entry)

[6] = biological target: T1, Peroxisome proliferator-activated receptor delta (Homo sapiens); experiment: Activation of human PPAR-delta LBD expressed in HEK293T cells assessed as induction of receptor activation at 1 to 3 uM incubated for 12 to 14 hrs by luciferase reporter gene assay; type: cell-based; details: HEK-293T
[7] = biological target: T4, Peroxisome proliferator-activated receptor delta (Homo sapiens, UniProt Q03181); experiment: Activation of human PPAR-delta LBD expressed in HEK293T cells assessed as induction of receptor activation incubated for 12 to 14 hrs by luciferase reporter gene assay; type: cell-based, HEK-293T
T4 sequence (Q03181 whole entry): T1 sequence (whole entry)

[8] = biological target: T5, Retinoic acid receptor alpha (Homo sapiens) (UniProt P10276); experiment: Activation of human RAR-alphaLBD expressed in HEK293T cells assessed as induction of receptor activation at 10 uM incubated for 12 to 14 hrs by luciferase reporter gene assay; type: cell-based; details: HEK-293T
T5 sequence (whole entry): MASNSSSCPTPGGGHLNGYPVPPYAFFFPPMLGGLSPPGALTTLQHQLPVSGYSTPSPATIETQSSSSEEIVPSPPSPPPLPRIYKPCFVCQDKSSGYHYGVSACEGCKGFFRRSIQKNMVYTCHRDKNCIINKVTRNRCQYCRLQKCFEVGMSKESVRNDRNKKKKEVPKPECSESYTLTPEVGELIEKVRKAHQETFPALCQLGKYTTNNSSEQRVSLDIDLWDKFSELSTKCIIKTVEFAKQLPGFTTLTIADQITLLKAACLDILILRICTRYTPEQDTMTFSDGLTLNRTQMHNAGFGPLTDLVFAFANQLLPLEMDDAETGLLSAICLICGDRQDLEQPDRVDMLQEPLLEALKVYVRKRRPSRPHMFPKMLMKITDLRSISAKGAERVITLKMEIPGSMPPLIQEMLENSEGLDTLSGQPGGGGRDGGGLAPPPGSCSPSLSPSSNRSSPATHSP

[9] = tested on: HepG2; experiment: Toxicity in human HepG2 cells assessed as reduction in cell viability up to 100 uM incubated for 48 hrs by WST1 assay; type: cell-based; details: hepg2, 48 h
[10] = biological target: T6, Peroxisome proliferator-activated receptor delta (Mus musculus) (UniProt P35396); experiment: Activation of PPARD in mouse C2C12 cells assessed as increase LpL mRNA expression at 3 uM incubated for 8 hrs by quantitative real time PCR analysis; type: cell-based
T6 sequence (whole entry): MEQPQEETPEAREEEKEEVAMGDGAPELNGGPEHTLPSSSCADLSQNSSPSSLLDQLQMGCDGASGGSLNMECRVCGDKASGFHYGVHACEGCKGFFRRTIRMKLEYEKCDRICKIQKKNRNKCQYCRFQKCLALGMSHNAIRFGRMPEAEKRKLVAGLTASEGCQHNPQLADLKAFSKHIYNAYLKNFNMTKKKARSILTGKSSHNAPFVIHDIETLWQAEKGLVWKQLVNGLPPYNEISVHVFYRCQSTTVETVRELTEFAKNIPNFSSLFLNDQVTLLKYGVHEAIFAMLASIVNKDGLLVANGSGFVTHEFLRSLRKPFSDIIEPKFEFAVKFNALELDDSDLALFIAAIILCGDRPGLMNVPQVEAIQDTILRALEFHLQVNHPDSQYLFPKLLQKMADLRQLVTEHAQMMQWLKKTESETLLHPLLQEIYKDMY

[11] = biological target: T6, Peroxisome proliferator-activated receptor delta (Mus musculus); experiment: Activation of PPARD in mouse C2C12 cells assessed as increase PCK mRNA expression at 3 uM incubated for 8 hrs by quantitative real time PCR analysis; type: cell-based

Activity [1]: Active | %max [2]: 31% | solubility [3]: 0.159 mg/mL (≈ 284 µM) | Activity [4]: Active | EC50 [5]: 0.94 µM | Activity [6]: Active | EC50 [7]: 1.5 µM | Activity [8]: inactive | Activity [10]: Active | Activity [11]: Active
SMILES: CC(C)c1onc(-c2c(Cl)cccc2Cl)c1COc1ccc(CNc2ccc(CC(=O)O)cc2)c(Cl)c1
Activity [9]: Non-Toxic

From ChEMBL document CHEMBL4627415, “Design and Structural Optimization of Dual FXR/PPARδ Activators” (J Med Chem, 2020)
